Reference: ChEMBL document CHEMBL1649359, “Izumiphenazines A-C: isolation and structure elucidation of phenazine derivatives from Streptomyces sp. IFM 11204” (2010)

Tests used:
Type in all cases: functional
AGS [1] = test: Induction of apoptosis in TRAIL-resistant human AGS cells assessed as decrease in cell viability at 40 uM after 24 hrs by fluorometric microculture cytotoxic assay in presence of TRAIL relative to in absence of TRAIL
AGS [2] = test: Induction of apoptosis in TRAIL-resistant human AGS cells assessed as decrease in cell viability at 30 uM after 24 hrs by fluorometric microculture cytotoxic assay in presence of TRAIL relative to in absence of TRAIL
AGS [3] = test: Induction of apoptosis in TRAIL-resistant human AGS cells assessed as decrease in cell viability at 20 uM after 24 hrs by fluorometric microculture cytotoxic assay in presence of TRAIL relative to in absence of TRAIL

Work on `O=C(O)c1cc2c(c3nc4c(O)cccc4nc13)[C@@H]1Cc3nc4cccc(O)c4nc3[C@@H](O)[C@@H]1O2` [IZUMIPHENAZINE A] yielded an Activity (AGS [1]) of 78%.

Compound `O=C1C[C@H](c2c(O)cc(C(=O)O)c3nc4cccc(O)c4nc23)Cc2nc3cccc(O)c3nc21` [IZUMIPHENAZINE B] has an Activity (AGS [2]) of 30%.

In the case of `CN(c1ccc(C(=O)O)cc1)c1cccc2nc3c(O)cccc3nc12` [IZUMIPHENAZINE C], the Activity (AGS [3]) is reported as 26%.
